Reference: patent US7108845B2, “Methods of synthesis and use of radiolabelled platinum chemotherapeutic agents” (Australian Nuclear Science & Technology Organisation, priority 2000, dated 2006)

How the values were obtained:
oesophageal cancer [1] = experiment: Pilot clinical study: imaging of uptake of ^195mPt-Cisplatin in lesions; format: in vivo, patients
Protocol: As part of a pilot study to evaluate the use of ^195mPt-Cisplatin and ^195mPt Carboplatin for prognosis of cancer, two patients were injected with ^195mPt-Cisplatin prepared as described in Example 2.
(§1) Patient No. 1 had oesophageal cancer, with one large lesion in the mediastinal region and large metastases in the liver. F-18-DG imaging confirmed the presence of both lesions. The patient was injected with ^195mPt-Cisplatin (100 MBq; specific activity 4.2 MBq/mg cisplatin) and imaged over a 5 day period. […] The patient was placed on a normal cisplatin chemotherapy in combination with radiation.
Patient No. 2 had oesophageal cancer. CT confirmed a large lesion in the mediastinal region. The patient was injected with ^195mPt-Cisplatin (50 MBq: specific activity 3.6 MBq/mg cisplatin) and Imaged over a 3 day period. […] The patient has undergone cisplatin chemotherapy and is being monitored for response to treatment.

oesophageal cancer [2] = experiment: Response to normal cisplatin chemotherapy in combination with radiation; format: in vivo, patients; conditions: Patient No. 1, after 2 months
Protocol: as §1

SMILES | uptake of the radiolabelled cisplatin in lesions (oesophageal cancer [1]; Patient No. 1, lesion in mediastinal region and liver metastases, injected 100 MBq (4.2 MBq/mg cisplatin), imaged over a 5 day period) | uptake of the ^195mPt-Cisplatin in the mediastinal region (oesophageal cancer [1]; Patient No. 2, large lesion in mediastinal region, injected 50 MBq (3.6 MBq/mg cisplatin), imaged over a 3 day period) | response to treatment (oesophageal cancer [2])
N.N.[Cl][195Pt][Cl] [^195mPt-Cisplatin, [^195mPt]Cisplatin] | negligible uptake | significant uptake | 
N.N.[Cl][Pt][Cl] [cisplatin, cis-dichlorodiammine-platinum(II)] |  |  | no evidence of response to treatment
